The values below are quoted from earlier work in patent publication US8236354B1, “Use of immunomodulators for the treatment of cancer” (ZOR Pharmaceuticals, LLC, priority 2012, dated 2012).

This data set deals with advanced pancreatic cancer. The conditions noted are these: cited from earlier work; for median Overall Survival: survival from study enrollment to death from any cause.

With `O=c1[nH]cc(F)c(=O)[nH]1` [5-FU, 5-fluorouracil], the “median Overall Survival” value is on record as 4.2 months.
Turning to `Nc1ccn([C@@H]2O[C@H](CO)[C@@H](O)C2(F)F)c(=O)n1` [gemcitabine], the “median Overall Survival” value is listed as 5.7 months. For the same compound, the “increased median survival versus 5-FU” value (in vivo) is recorded as 1.5 months.
